Assay results taken from patent US11518996B2, “Methods and compositions for treating cancer using peptide nucleic acid-based agents” (MEMORIAL SLOAN-KETTERING CANCER CENTER, priority 2013, dated 2022).
Entries after “also recorded” stand apart in the source; their conditions may differ.

Tests used:
[1] = tested on: total BRAF mRNA; experiment: qRT-PCR of total BRAF mRNA in SK-Mel 7 cells; format: cell-based; details: 750 nM, 48 hours, RT-PCR, normalized with GAPDH
Experimental: (§1) C918 and OCM1A cells were treated with 750 nM PNA (I-292-3 L2LP) for 48 hours. Mutant BRAF mRNA expression in cells was quantified using RT-PCT. Specifically, cells were treated and then lysed using TRIzol Reagent® (Invitrogen). Reverse transcription of 1 μg of RNA was done using the SuperScript III First-Strand Synthesis System (Invitrogen). Quantitative real-time PCR (qRT-PCR) assays were performed using the 7300 Real Time PCR System (Applied Biosystems). TaqMan gene expression assays, which include gene-specific probe primer sets (Applied Biosystems), were used to detect the indicated genes and glyceraldehyde-3-phosphate dehydrogenase (GAPDH)/hypoxanthine phosphoribosyltransferase (HPRT) mRNA. The relative expression of each gene was calculated by the ΔΔCT method. Cells wild-type for BRAF (C918) as well as mutant cell lines (OCM1A and SK-Mel 7) were treated for 48 hours with 750 nM I-292-3 L2LP NHAc. According to FIG. 5A, BRAF^V600E mRNA expression was quantified using RT-PCR. Relative Quantity (RQ) values were normalized with GAPDH loading control and set relative to the mutant BRAF mRNA expression in untreated OCM1A cells (ND). […] According to FIG. 5B, Both BRAF^V600E and total BRAF mRNA expression in SK-Mel 7 cells were quantified using RT-PCR. RQ values were normalized with GAPDH and set relative to untreated cells. […]

[2] = tested on: total BRAF wild type protein; experiment: Western blot of total BRAF protein in C918 cells; format: cell-based; details: 750 nM, over 72 hours
Experimental: (§2) Cells were treated for 24, 48 and 72-hour treatments with 750 nM PNA and lysed in radioimmunoprecipitation assay (RIPA) buffer supplemented with protease inhibitor cocktail tablets (Roche Diagnostics) and 1 mmol/L Na3VO4. Equal amounts of protein were loaded on 4% to 12% PAGE gels (Invitrogen). Polyvinylidene difluoride (PVDF) membranes were blocked with 5% nonfat dried milk and probed with p-MEK, MEK, p-ERK 1/2 (T202/Y204), ERK 1/2, cleaved PARP, α-tubulin (Cell Signaling Technology), BRAF (Santa Cruz Biotechnology), LC3 (Novus Biologicals) and BRAF V600E (Spring Bioscience).
(§3) FIGS. 3A-3C depict BRAF mutant and BRAF wild type protein expression in melanoma cells (C918 and OCM1A) treated with 750 nM of the PNA I-292-3 L2LP NHAc for 24, 48 or 72 hours. FIG. 3A depicts the measurement of mutant and total BRAF protein expression as measured by Western blotting in C918 and OCM1A cells. Tubulin expression was also measured as a loading control. […]
as §3, with “4A-4C” for “3A-3C”, “I-292-9 L2” for “I-292-3 L2LP”, “4A” for “3A”

[3] = tested on: OCM1A cells; experiment: Cell viability assay (CCK8), BRAF V600E mutant uveal melanoma cells; details: increasing doses, 72 hours
Experimental: (§4) PNA compounds targeting the BRAF V600E gene mutation were tested against melanoma cell lines that are either BRAF wild type (C918) or BRAF V600E mutant (OCM1A and SK-MEL 7). C918 and OCM1A are uveal melanoma cell lines while SK-MEL 7 is a cutaneous melanoma cell line. C918 was kindly provided by Robert Folberg (University of Illinois, Chicago, Ill.). OCM1A was from Dr. William Harbour (Washington University, St. Louis, Mo.). SK-MEL 7 was from Alan Houghton (Memorial Sloan-Kettering Cancer Center, New York, N.Y.). Cells were cultured in RPMI medium supplemented with 10% FBS, 100 units/mL penicillin, and […] streptomycin and maintained at 37° C. in 5% CO2.
(§5) PNA compounds targeting the BRAF V600E gene mutation were tested against melanoma cell lines that are either BRAF wild-type (C918) or BRAF V600E mutant (OCM1A and SK-MEL 7). C918 and OCM1A are uveal melanoma cell lines while SK-MEL 7 is a cutaneous melanoma cell line. […] Cells were treated with increasing doses of several PNA derivatives for 72 hours after which the cell viability was measured and calculated relative to the untreated cells. Cells were plated in 96-well plates and treated in triplicates with the indicated concentrations of PNA derivative. Viability was assessed after 72 hours of treatment using the Cell Counting Kit 8 (CCK8) from Dojindo Molecular Technologies according to the manufacturer's instructions.

[4] = tested on: BRAF V600E mRNA; experiment: qRT-PCR of BRAF V600E mRNA in OCM1A cells; format: cell-based; details: 750 nM, 48 hours, RT-PCR, normalized with GAPDH
Experimental: as §1

[5] = tested on: SK-MEL 7 cells; experiment: Cell viability assay (CCK8), BRAF V600E mutant cutaneous melanoma cells; details: increasing doses, 72 hours
Experimental: as §4, §5

[6] = tested on: BRAF V600E mutant protein; experiment: Western blot of BRAF V600E mutant protein in OCM1A cells; format: cell-based; details: 750 nM, over 72 hours
Experimental: as §2, §3
as §3, with “4A-4C” for “3A-3C”, “I-292-9 L2” for “I-292-3 L2LP”, “4A” for “3A”

[7] = tested on: BRAF V600E mRNA; experiment: qRT-PCR of BRAF V600E mRNA in SK-Mel 7 cells; format: cell-based; details: 750 nM, 48 hours, RT-PCR, normalized with GAPDH
Experimental: as §1

[8] = tested on: OCM1A; experiment: Xenograft mouse trial, tumor size; format: in vivo, Athymic mice
Experimental: Athymic mice (3 per group) were inoculated with OCM1A. After 15 days, the size of the developing tumor was sufficient for further measurement and monitoring. The treatment group was given 50 mg/kg dosage of I-292-3 L2LP-NHAc on days 15, 17, 20 and 22. […] Moreover, one week following the last dose, the average tumor size of the treated group began to shrink by 25% over 4 days.

[9] = tested on: total BRAF wild type protein; experiment: Western blot of total BRAF protein in OCM1A cells; format: cell-based; details: 750 nM, over 72 hours
Experimental: as §2, §3
as §3, with “4A-4C” for “3A-3C”, “I-292-9 L2” for “I-292-3 L2LP”, “4A” for “3A”

[10] = tested on: BRAF; experiment: BRAF expression by Western blot in OCM1A cells; format: cell-based
Experimental: as §5, §2

[11] = tested on: BRAF; experiment: BRAF expression by Western blot in SK MEL 7 cells; format: cell-based
Experimental: as §5, §2

[12] = Toxicity in xenograft mice by weight loss and activity; format: in vivo, Athymic mice; details: OCM1A xenograft mice, 50 mg/kg doses, 28 day study
Experimental: Toxicity of the tested PNA derivative was evaluated by measuring weight loss of test animals.

Compound	total BRAF mRNA expression in SK-Mel 7 cells [1]	total BRAF wild type protein in C918 cells [2]	suppression of cell viability in OCM1A cells [3]	BRAF V600E mRNA expression in OCM1A cells [4]	suppression of cell viability in SK-MEL 7 cells [5]	BRAF V600E mutant protein expression in OCM1A cells [6]	BRAF V600E mRNA expression in SK-Mel 7 cells [7]	tumor volume regression ([8]; OCM1A xenograft mice, 50 mg/kg IP doses (FIG. 6A legend)) [%]	average tumor size as percentage of the untreated control group ([8]; OCM1A xenograft, 50 mg/kg on days 15, 17, 20 and 22, day 28) [%]	shrinkage of average tumor size of the treated group ([8]; OCM1A xenograft, 50 mg/kg, over 4 days, one week following the last dose) [%]	total BRAF wild type protein in OCM1A cells [9]	decrease in BRAF expression, OCM1A cells [10] [%]	decrease in BRAF expression, SK MEL 7 cells [11] [%]	animal weight and activity (toxicity, words) [12]
CCCCCCCCCCCCCCCC(=O)NCCCC[C@H](NC(=O)[C@@H](CCCCN)NC(=O)[C@@H](CCCCN)NC(=O)[C@H](NC(=O)[C@@H](CCCCN)NC(=O)[C@@H](CCCNC(=N)N)NC(=O)[C@@H](CCCCN)NC(=O)[C@@H](CCCCN)NC(=O)[C@@H](CCCCN)NC(=O)[C@H]1CCCN1C(=O)[C@@H](CCCCN)NC(=O)CN(CCNC(=O)CN(CCNC(=O)CN(CCNC(=O)CN(CCNC(=O)CN(CCNC(=O)CN(CCNC(=O)CN(CCNC(=O)CN(CCNC(=O)CN(CCNC(=O)CN(CCNC(=O)CN(CCNC(=O)CN(CCNC(=O)CN(CCNC(=O)CN(CCNC(=O)CN(CCNC(=O)CN(CCNC(=O)CN(CCNC(=O)CN(CCNC(=O)[C@@H](CCCCN)NC(=O)[C@@H](CCCCN)NC(=O)[C@H](CCCCNC(=O)CCCCCCCCCCCCCCC)NC(C)=O)C(=O)Cn1ccc(N)nc1=O)C(=O)Cn1ccc(N)nc1=O)C(=O)Cn1cc(C)c(=O)[nH]c1=O)C(=O)Cn1ccc(N)nc1=O)C(=O)Cn1cnc2c(N)ncnc21)C(=O)Cn1cnc2c(N)ncnc21)C(=O)Cn1cnc2c(=O)[nH]c(N)nc21)C(=O)Cn1cnc2c(N)ncnc21)C(=O)Cn1cnc2c(=O)[nH]c(N)nc21)C(=O)Cn1cc(C)c(=O)[nH]c1=O)C(=O)Cn1cnc2c(N)ncnc21)C(=O)Cn1cnc2c(N)ncnc21)C(=O)Cn1cc(C)c(=O)[nH]c1=O)C(=O)Cn1cnc2c(N)ncnc21)C(=O)Cn1cnc2c(N)ncnc21)C(=O)Cn1cc(C)c(=O)[nH]c1=O)C(=O)Cn1cnc2c(N)ncnc21)C(=O)Cn1cc(C)c(=O)[nH]c1=O)C(C)C)C(N)=O [I-292-3 L2LP NHAc, AcNH-Lys(palmitoyl)-dLys-dLys-C CT CAAGAGTAATAATAT-dLys-dPro-dLys-dLys-dLysdArg-dLys-dVal-dLys-dLys-Lys(palmitoyl)-CONH2]	no observed decrease	no significant reduction	significant suppression of cell viability	significantly decreased	significant suppression of cell viability	decreased expression	decreased significantly	50	35	25	no significant reduction	40.3	62.4	no weight loss or changes in daily activity
AcNH-Lys(palmitoyl)-dLys-dLys-CCTCAAGAGTAATAATAT-dLys-dArg3-dGln-dArg2-dLys2-dArg-Gly-dTyr-dLys-dLys-Lys(palmitoyl)-CONH2 [I-292-9 L2 NHAc]		no significant reduction	significant suppression of cell viability		significant suppression of cell viability	decreased expression					slight decrease; also recorded: slight reduction			
